In PubChem BioAssay (NCI):
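Each compound was tested at five concentrations against cells in 96-well plates for 48 hours. GI50: concentration for 50% inhibition of growth. Definition used: TGI = concentration required for complete inhibition of growth.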

Assays:
Test in all cases: NCI anticancer screen, dose series, 48 h
[1] = system: NCI-H23 lung
[2] = system: NCI-H460 lung
[3] = system: NCI/ADR-RES ovarian
[4] = system: OVCAR-3 ovarian
[5] = system: OVCAR-4 ovarian
[6] = system: OVCAR-5 ovarian
[7] = system: OVCAR-8 ovarian
[8] = system: PC-3 prostate
[9] = system: RPMI-8226 leukemia
[10] = system: SF-268 CNS
[11] = system: SF-295 CNS
[12] = system: SF-539 CNS
[13] = system: SK-MEL-2 melanoma
[14] = system: SK-MEL-28 melanoma
[15] = system: SK-MEL-5 melanoma
[16] = system: SK-OV-3 ovarian
[17] = system: SN12C renal
[18] = system: SNB-19 CNS
[19] = system: SNB-75 CNS
[20] = system: SR leukemia
[21] = system: SW-620 colon
[22] = system: T-47D breast
[23] = system: TK-10 renal
[24] = system: U251 CNS
[25] = system: UACC-257 melanoma
[26] = system: UACC-62 melanoma
[27] = system: UO-31 renal

OCc1cc2ccccc2c2c3c(ccc12)OCO3
TGI [1]: 221 µM | GI50 [2]: 28.5 µM | TGI [2]: 752 µM | GI50 [3]: 29.6 µM | TGI [3]: 126 µM | GI50 [4]: 36.4 µM | TGI [4]: 168 µM | GI50 [5]: 30.6 µM | TGI [5]: 603 µM | GI50 [6]: 40.9 µM | TGI [6]: 207 µM | GI50 [7]: 29.2 µM | TGI [7]: 199 µM | GI50 [8]: 25.4 µM | TGI [8]: 140 µM | GI50 [9]: 26.2 µM | TGI [9]: 94.4 µM | GI50 [10]: 33.8 µM | TGI [10]: 117 µM | GI50 [11]: 33.8 µM | TGI [11]: 154 µM | GI50 [12]: 23.2 µM | TGI [12]: 87 µM | GI50 [13]: 32.2 µM | TGI [13]: 84.9 µM | GI50 [14]: 35.3 µM | TGI [14]: 350 µM | GI50 [15]: 20.6 µM | TGI [15]: 59.9 µM | GI50 [16]: 32 µM | TGI [16]: 96.6 µM | GI50 [17]: 29.1 µM | TGI [17]: 141 µM | GI50 [18]: 35.6 µM | TGI [18]: 286 µM | GI50 [19]: 18.4 µM | TGI [19]: 64 µM | GI50 [20]: 28.4 µM | TGI [20]: 76.8 µM | GI50 [21]: 29 µM | TGI [21]: 118 µM | GI50 [22]: 24.1 µM | TGI [22]: 81.5 µM | GI50 [23]: 31.2 µM | TGI [23]: 79.1 µM | GI50 [24]: 28.6 µM | TGI [24]: 141 µM | GI50 [25]: 28.1 µM | TGI [25]: 82.3 µM | GI50 [26]: 21.5 µM | TGI [26]: 74.2 µM | GI50 [27]: 26.3 µM | TGI [27]: 108 µM
